For eight compounds, inhibition, exposure and IC50 results are on record in US20240360137A1 (Novartis AG, priority 2023, published 2024).

Each structure is given as a SMILES string.

The subject of data set [1] is RB phosphorylation (Ser 807/811) in OVCAR3 xenograft tumors. Kind of data set: In vivo pharmacodynamic assessment in Cyclin E amplified OVCAR3 xenograft model (RB phosphorylation by MSD). Also noted: species or system NSG mice. The conditions noted are these: Mus musculus, 3 days, 1 hour after the last dose; for inhibition at 30 mg/kg: OVCAR-3, 30 mg/kg twice daily (BID) oral. The source says: Cyclin-dependent kinase 2 (CDK2) is a member of the protein kinase family. It plays an important role in regulating various events of the eukaryotic cell division cycle. CDK2 is involved in the inactivation of the retinoblastoma protein (RB) by phosphorylation which then allows for the G1 to S phase transition of the cell cycle. Overexpression of cyclin E, the obligate binding partner of CDK2, can cause abnormal regulation of the cell cycle, which is directly associated with hyperproliferation of cancer cells. Therefore, CDK2 is regarded as a potentially impactful therapeutic target for cancer treatment. The purpose of these studies was to evaluate the PK/PD relationship of CDK2 inhibitors in Cyclin E amplified cancer cell lines in vivo in immunodeficient mice. Plasma and tumor tissues were collected for PK analysis and PD assays (read out of RB phosphorylation inhibition) after 3 days of dosing of the CDK2 inhibitor.
(§1) The Cyclin E amplified ovarian cancer cell line OVCAR3 was tested to be free of Mycoplasma and murine viruses using the IDEXX Impact 8 panel. Cells were cultured in RPMI 1640 media supplemented with 20% FBS for fewer than 5 passages after initial thawing and prior to cell implantation into immunodeficient mice. Cells were harvested and resuspended in sterile PBS containing 50% Matrigel. Ten million viable cells were injected at a volume of 0.2 ml per mouse into the flank of immunocompromised NSG mice (1 implant per animal). When tumors reached a mean volume of 200-300 mm^3, mice were randomized and treatments were initiated. Compounds were formulated in 10% HPBCD (hydroxypropyl beta cyclodextrin) and administered orally, twice a day, in a volume of 10 ml/kg. The dosing volume was adjusted based on individual mouse body weight on the day of dosing. Pharmacodynamic markers were evaluated on day 3.
For terminal PD biomarker analysis, mice were euthanized following 3 days of treatment (1 hour post 5th dose). […] RB phosphorylation levels of the resulting tumor protein lysates were then determined by MSD. […] Values were calculated and normalized to the untreated controls. […]

Data set [2] is described as follows: PK analysis of plasma in OVCAR3 xenograft study. In kind it is in vivo, NSG mice. As to conditions: 60 mg/kg BID oral, compared to Compound 1 and Compound 2 at 30 mg/kg BID. On the procedure:
as §1
For determination of compound plasma concentrations, serial blood collections were performed at designated timepoints after dosing. Blood was collected in EDTA-lined tubes and placed on wet ice. Within 30 minutes of collection, blood was centrifuged, and the plasma supernatants were aliquoted and stored at −20 C until analyzed. […] CDK2 inhibitor concentrations were measured by LC-MS/MS analysis on API 4500, API 5500+, or Sciex 7500 instruments. […]

The target of a further data set is CDK4/cyclinD1 (Homo sapiens, UniProt P11802). Kind of data set: CDKi biochemical assay (TR-FRET, phosphorylation of S780 on RB1 peptide). As to conditions: CDK4/cyclinD1 20 pM, 1 mM ATP, 60 min at 25° C. In outline: (§2)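 Avi-tagged, biotinylated CDK4/cyclinD1 (20 pM) or CDK6/cyclinD3 (10 pM) phosphorylates 200 nM His-MBP-RB1[773-924] at S780 with 1 mM ATP in HEPES pH 7.5/MgCl2, 60 min, 25° C. After EDTA quench, Eu anti-pRB(S780)/SA-APC TR-FRET is read after 3 h. Apparent IC50 comes from % activity versus log concentration.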
Background: TR-FRET usually uses a lanthanide donor and a delayed reading to cut background.

For a further data set, the target named is CDK6/cyclinD3 (Homo sapiens, UniProt Q00534). Described as above. The conditions noted are these: CDK6/cyclinD3 10 pM, 1 mM ATP, 60 min at 25° C. The procedure, abridged:
as §2

A further data set addresses CDK2/CyclinE1 (Homo sapiens, UniProt P24941). Described as above. As to conditions: CDK2/CyclinE1 100 pM, 1 mM ATP, 60 min at 25° C. The procedure, abridged: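 CDK2/CyclinE1 (Avi-tag, 100 pM; CDK2 E. coli-expressed) phosphorylated His-MBP-RB1[773-924] (200 nM) at S780 with 1 mM ATP in HEPES pH 7.5/MgCl2/DTT, 60 min at 25° C. After EDTA quench, TR-FRET detection ran 3 h (Eu anti-p-RB S780, SA-APC). Apparent IC50 came from percent activity versus log concentration.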

Another data set has as its target CDK1/CyclinB1 (Homo sapiens, UniProt P06493). Described as above. The conditions noted are these: CDK1/CyclinB1 10 pM, 1 mM ATP, 60 min at 25° C. In outline:
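CDK1/CyclinB1 (10 pM, Avi-tagged, insect-cell expressed) phosphorylated S780 of His-MBP-RB1[773-924] (200 nM) with 1 mM ATP in HEPES pH 7.5, 10 mM MgCl2, 1 mM DTT, 60 min at 25 °C. After EDTA quench, TR-FRET detection (Eu anti-pRB S780, SA-APC) for 3 h; apparent IC50 from percent activity versus log concentration.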

By inhibition is commonly meant the share of the control response that was lost under treatment. A low value points to a response near the control. As usually defined, the IC50 is the midpoint of a concentration-inhibition curve. Low values mean greater potency in that assay, high ones weaker potency in that assay.

Consider `COc1n[nH]cc1Nc1ncc2c(n1)N([C@@H]1CCC[C@@H](O)C1)C(=O)C21CC1` [Compound 1], for which the inhibition at 30 mg/kg in data set [1] was ~80%.

In the case of `CCOc1n[nH]cc1Nc1ncc2c(n1)N([C@@H]1CCC[C@@H](O)C1)C(=O)C21CC1` [Compound 2], in data set [1], the inhibition at 30 mg/kg was ~80%.

Take `CS(=O)(=O)N1CC[C@H](Nc2ncc3c(n2)N([C@@H]2CCC[C@@H](O)C2)C(=O)C32CC2)[C@H](F)C1` [Compound 3, reference compound]: the exposure result in data set [2] is “lower exposure”. In data set [1] (OVCAR-3, 60 mg/kg twice daily (BID) oral), the inhibition at 60 mg/kg was ~50%.

With `O=C1N([C@@H]2CCC[C@@H](O)C2)c2nc(Nc3c[nH]nc3-c3cnn4cccnc34)ncc2C12CC2` [Example 81, 7′-((1R,3R)-3-hydroxycyclohexyl)-2′-((3-(pyrazolo[1,5-a]pyrimidin-3-yl)-1H-pyrazol-4-yl)amino)spiro[cyclopropane-1,5′-pyrrolo[2,3-d]pyrimidin]-6′(7′H)-one], the IC50 against CDK4/cyclinD1 was ≥ 10 µM; at CDK6/cyclinD3, ≥ 10 µM; on CDK2/CyclinE1, 0.006 µM; against CDK1/CyclinB1, 0.41 µM.

Take `CO[C@H]1C[C@H](Oc2n[nH]cc2Nc2ncc3c(n2)N([C@@H]2CCC[C@@H](O)C2)C(=O)C32CC2)C1` [Example 82, 7′-((1R,3R)-3-hydroxycyclohexyl)-2′-((3-((1r,3R)-3-methoxycyclobutoxy)-1H-pyrazol-4-yl)amino)spiro[cyclopropane-1,5′-pyrrolo[2,3-d]pyrimidin]-6′(7′H)-one]: the IC50 was ≥ 10 µM at CDK4/cyclinD1, ≥ 10 µM against CDK6/cyclinD3, 0.026 µM against CDK2/CyclinE1 and 2.53 µM against CDK1/CyclinB1.

As for `O=C1N([C@@H]2CCC[C@@H](O)C2)c2nc(Nc3c[nH]nc3-c3nnco3)ncc2C12CC2` [Example 83, 2′-((3-(1,3,4-oxadiazol-2-yl)-1H-pyrazol-4-yl)amino)-7′-((1R,3R)-3-hydroxycyclohexyl)spiro[cyclopropane-1,5′-pyrrolo[2,3-d]pyrimidin]-6′(7′H)-one], the half-maximal inhibitory concentration (IC50) against CDK4/cyclinD1 was determined as 2.18 µM; against CDK6/cyclinD3, 2.67 µM; against CDK2/CyclinE1, 0.031 µM; against CDK1/CyclinB1, 8.62 µM.

Turning to `Cn1ncc(-c2n[nH]cc2Nc2ncc3c(n2)N([C@@H]2CCC[C@@H](O)C2)C(=O)C32CC2)c1C(F)(F)F` [Example 84, 7′-((1R,3R)-3-hydroxycyclohexyl)-2′-((1′-methyl-5′-(trifluoromethyl)-1H,1′H-[3,4′-bipyrazol]-4-yl)amino)spiro[cyclopropane-1,5′-pyrrolo[2,3-d]pyrimidin]-6′(7′H)-one], the concentration for half-maximal inhibition (IC50) against CDK4/cyclinD1 is ≥ 10 µM; against CDK6/cyclinD3, ≥ 10 µM; at CDK2/CyclinE1 it was 0.088 µM; on CDK1/CyclinB1 it was ≥ 10 µM.

In the case of `O=C1N([C@@H]2CCC[C@@H](O)C2)c2nc(Nc3c[nH]nc3OC3(CF)CC3)ncc2C12CC2` [Example 85, 2′-((3-(1-(fluoromethyl)cyclopropoxy)-1H-pyrazol-4-yl)amino)-7′-((1R,3R)-3-hydroxycyclohexyl)spiro[cyclopropane-1,5′-pyrrolo[2,3-d]pyrimidin]-6′(7′H)-one], the IC50 on CDK4/cyclinD1 is 4.4 µM; at CDK6/cyclinD3, ≥ 10 µM; against CDK2/CyclinE1 it was 0.027 µM; at CDK1/CyclinB1 it was 1.71 µM.
